Results on 22 compounds are retold here after US7750020B2, “Sulfonamide-thiazolpyridine derivatives as glucokinase activators useful the treatment of Type 2 diabetes” (Novartis AG, priority 2004, dated 2010).

Each structure is given as a SMILES string.

The first series addresses T1, recombinant GST-GK (Homo sapiens, UniProt P35557).
T1 sequence (P35557 1-465): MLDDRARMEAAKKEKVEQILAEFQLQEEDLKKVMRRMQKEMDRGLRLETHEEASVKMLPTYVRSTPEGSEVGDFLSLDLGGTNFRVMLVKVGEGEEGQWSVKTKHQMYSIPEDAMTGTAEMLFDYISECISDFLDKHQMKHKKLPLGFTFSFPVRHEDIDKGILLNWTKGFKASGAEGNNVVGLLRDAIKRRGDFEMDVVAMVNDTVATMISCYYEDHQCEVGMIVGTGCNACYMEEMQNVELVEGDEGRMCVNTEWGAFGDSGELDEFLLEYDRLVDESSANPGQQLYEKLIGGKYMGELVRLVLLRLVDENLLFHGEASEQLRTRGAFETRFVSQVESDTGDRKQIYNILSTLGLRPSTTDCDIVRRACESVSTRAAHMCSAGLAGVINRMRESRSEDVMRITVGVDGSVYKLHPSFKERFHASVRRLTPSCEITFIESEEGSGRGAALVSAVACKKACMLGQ
The series is described as follows: in vitro assay measuring the activation of recombinant GST-GK. It is filed as biochemical. The source says:
The glucokinase activation in vitro may be determined by measuring the activation of recombinant GST-GK by a compound of the present invention in the absence or the presence of GKRP, a 68,000 Da protein inhibitor of GK. In these assays, formation of glucose-6-phosphate is coupled directly to the formation of thioNADH. GST-GK catalyzes the reaction of glucose and Mg-ATP to produce glucose-6-phosphate and ADP. Glucose-6-phosphate dehydrogenase (G6PDH) reduces thionicotinamide (thioNAD) to thioNADH. The assay measures the formation of […] at 405 nM.
The basic GK assay components are as follows: 25 mM HEPES (pH 7.1), 25 mM KCl, 2.5 mM MgCl2, 1 mM ATP (Sigma A-5394), 1 mM DTT, 1 mM thioNAD (Sigma T-7375), 80 units/mL G6PDH (Sigma G-5885), 10 mM glucose and […] GST-GK (110 nM). For assessing reversal of GK inhibition by GKRP, 20 μM Fructose-1-phosphate ([…]) and 25 μg/mL of recombinant GKRP (370 nM) are added to these assay components. F-1-P at 1 μM is used as a control in the GK/GKRP assay. F-1-P reverses inhibition of GST-GK by GKRP.
The assay is done in standard, 96-well, round-bottom plates and the total assay volume is 25 μL. […] The plates are then delivered via the Zymark XP arm to a Thermomax plate reader and read kinetically over three min at 405 nM at RT. Units are expressed as milli-optical density per minute (mOD/min).
As for `COc1ccc2nc(NC(=O)C(CC3CCCC3)c3ccc(S(=O)(=O)N4CCN(C)CC4)cc3)sc2n1` (stereo not shown) [Example 1, 3-Cyclopentyl-N-(5-methoxy-thiazolo[5,4-b]pyridin-2-yl)-2-[4-(4-methyl-piperazine-1-sulfonyl)-phenyl]-propionamide], the concentration giving a half-maximal response (EC50) is around 251 nM.

System in a further series: not given
Test: not given
`COc1ccc2nc(NC(=O)C(CC3CCCC3)c3ccc(S(=O)(=O)NC4CC4)cc3)sc2n1` (stereo not shown) [Example 4, 3-Cyclopentyl-2-(4-cyclopropylsulfamoyl-phenyl)-N-(5-methoxy-thiazolo[5,4-b]pyridin-2-yl)-propionamide] came in with a melting point of 235 to 237 °C.

In the case of `COCCNS(=O)(=O)c1ccc(C(CC2CCCC2)C(=O)Nc2nc3ccc(OC)nc3s2)cc1` (stereo not shown) [Example 5, 3-Cyclopentyl-2-[4-(2-methoxy-ethylsulfamoyl)-phenyl]-N-(5-methoxy-thiazolo[5,4-b]pyridin-2-yl)-propionamide], the melting point was 209 to 211 °C.

On to `COc1cccc(CNS(=O)(=O)c2ccc(C(CC3CCCC3)C(=O)Nc3nc4ccc(OC)nc4s3)cc2)c1` (stereo not shown) [Example 6, 3-Cyclopentyl-2-[4-(3-methoxy-benzylsulfamoyl)-phenyl]-N-(5-methoxy-thiazolo[5,4-b]pyridin-2-yl)-propionamide], for which the melting point lay within 179 to 181 °C.

As to `COc1ccc2nc(NC(=O)C(CC3CCCC3)c3ccc(S(=O)(=O)Nc4ccccc4)cc3)sc2n1` (stereo not shown) [Example 7, 3-Cyclopentyl-N-(5-methoxy-thiazolo[5,4-b]pyridin-2-yl)-2-(4-phenylsulfamoyl-phenyl)-propionamide], the melting point lay in the range of 223 to 226 °C.

`COc1ccc2nc(NC(=O)C(CC3CCCC3)c3ccc(S(=O)(=O)N(C(C)C)C(C)C)cc3)sc2n1` (stereo not shown) [Example 9, 3-Cyclopentyl-2-(4-diisopropylsulfamoyl-phenyl)-N-(5-methoxy-thiazolo[5,4-b]pyridin-2-yl)-propionamide]: the melting point lay in the range of 83 to 85 °C.

`COc1ccc2nc(NC(=O)C(CC3CCCC3)c3ccc(S(=O)(=O)NCc4ccco4)cc3)sc2n1` (stereo not shown) [Example 10, 3-Cyclopentyl-2-{4-[(furan-2-ylmethyl)-sulfamoyl]-phenyl}-N-(5-methoxy-thiazolo[5,4-b]pyridin-2-yl)-propionamide] displayed a melting point of 244 to 247 °C.

Regarding `CCCN(c1ccccc1)S(=O)(=O)c1ccc(C(CC2CCCC2)C(=O)Nc2nc3ccc(OC)nc3s2)cc1` (stereo not shown) [Example 11, 3-Cyclopentyl-N-(5-methoxy-thiazolo[5,4-b]pyridin-2-yl)-2-[4-(phenyl-propyl-sulfamoyl)-phenyl]-propionamide], the melting point fell in the range of 83 to 85 °C.

For `COc1ccc2nc(NC(=O)C(CC3CCCC3)c3ccc(S(=O)(=O)N(C)C)cc3)sc2n1` (stereo not shown) [Example 12, 3-Cyclopentyl-2-(4-dimethylsulfamoyl-phenyl)-N-(5-methoxy-thiazolo[5,4-b]pyridin-2-yl)-propionamide], the melting point fell in the range of 229 to 234 °C.

In the case of `CCN(CC)S(=O)(=O)c1ccc(C(CC2CCCC2)C(=O)Nc2nc3ccc(OC)nc3s2)cc1` (stereo not shown) [Example 13, 3-Cyclopentyl-2-(4-diethylsulfamoyl-phenyl)-N-(5-methoxy-thiazolo[5,4-b]pyridin-2-yl)-propionamide], the melting point lay within 150 to 152 °C.

With `CCCN(CCC)S(=O)(=O)c1ccc(C(CC2CCCC2)C(=O)Nc2nc3ccc(OC)nc3s2)cc1` (stereo not shown) [Example 14, 3-Cyclopentyl-2-(4-dipropylsulfamoyl-phenyl)-N-(5-methoxy-thiazolo[5,4-b]pyridin-2-yl)-propionamide], the melting point fell in the range of 64 to 66 °C.

`COc1ccc2nc(NC(=O)C(CC3CCCC3)c3ccc(S(=O)(=O)NCc4cccnc4)cc3)sc2n1` (stereo not shown) [Example 15, 3-Cyclopentyl-N-(5-methoxy-thiazolo[5,4-b]pyridin-2-yl)-2-{4-[(pyridin-3-ylmethyl)-sulfamoyl]-phenyl}-propionamide] displayed a melting point of 227 to 229 °C.

In the case of `COc1ccc2nc(NC(=O)C(CC3CCCC3)c3ccc(S(=O)(=O)N4CCCCC4)cc3)sc2n1` (stereo not shown) [Example 17, 3-Cyclopentyl-N-(5-methoxy-thiazolo[5,4-b]pyridin-2-yl)-2-[4-(piperidine-1-sulfonyl)-phenyl]-propionamide], the melting point lay within 184 to 218 °C.

In turn, `COc1ccc2nc(NC(=O)C(CC3CCCC3)c3ccc(S(=O)(=O)N4CCOCC4)cc3)sc2n1` (stereo not shown) [Example 18, 3-Cyclopentyl-N-(5-methoxy-thiazolo[5,4-b]pyridin-2-yl)-2-[4-(morpholine-4-sulfonyl)-phenyl]-propionamide] yielded a melting point of 120 to 123 °C.

The compound `COc1ccc2nc(NC(=O)C(CC3CCCC3)c3ccc(S(=O)(=O)NCc4cccs4)cc3)sc2n1` (stereo not shown) [Example 19, 3-Cyclopentyl-N-(5-methoxy-thiazolo[5,4-b]pyridin-2-yl)-2-{4-[(thiophen-2-ylmethyl)-sulfamoyl]-phenyl}-propionamide] gave a melting point of 263 to 268 °C.

`COc1ccc2nc(NC(=O)C(CC3CCCC3)c3ccc(S(=O)(=O)Nc4cccnc4)cc3)sc2n1` (stereo not shown) [Example 20, 3-Cyclopentyl-N-(5-methoxy-thiazolo[5,4-b]pyridin-2-yl)-2-[4-(pyridin-3-ylsulfamoyl)-phenyl]-propionamide] showed a melting point of 125 to 127 °C.

For the compound `COc1ccc2nc(NC(=O)C(CC3CCCC3)c3ccc(S(=O)(=O)NCc4ccccc4F)cc3)sc2n1` (stereo not shown) [Example 21, 3-Cyclopentyl-2-[4-(2-fluoro-benzylsulfamoyl)-phenyl]-N-(5-methoxy-thiazolo[5,4-b]pyridin-2-yl)-propionamide], the melting point was 238 to 240 °C.

In turn, `COc1ccc2nc(NC(=O)C(CC3CCCC3)c3ccc(S(=O)(=O)NCc4ccccc4)cc3)sc2n1` (stereo not shown) [Example 23, 2-(4-Benzylsulfamoyl-phenyl)-3-cyclopentyl-N-(5-methoxy-thiazolo[5,4-b]pyridin-2-yl)-propionamide] registered a melting point of 237 to 240 °C.

Take `COc1ccc2nc(NC(=O)C(CC3CCCC3)c3ccc(S(=O)(=O)N(C)Cc4ccccc4)cc3)sc2n1` (stereo not shown) [Example 24, 2-[4-(Benzyl-methyl-sulfamoyl)-phenyl]-3-cyclopentyl-N-(5-methoxy-thiazolo[5,4-b]pyridin-2-yl)-propionamide]: the melting point fell in the range of 206 to 208 °C.

`CCCCN(CCCC)S(=O)(=O)c1ccc(C(CC2CCCC2)C(=O)Nc2nc3ccc(OC)nc3s2)cc1` (stereo not shown) [Example 25, 3-Cyclopentyl-2-(4-dibutylsulfamoyl-phenyl)-N-(5-methoxy-thiazolo[5,4-b]pyridin-2-yl)-propionamide]: the melting point was in the range of 65 to 67 °C.

On to `CCN1CCN(S(=O)(=O)c2ccc(C(CC3CCCC3)C(=O)Nc3nc4ccc(OC)nc4s3)cc2)CC1` (stereo not shown) [Example 26, 3-Cyclopentyl-2-[4-(4-ethyl-piperazine-1-sulfonyl)-phenyl]-N-(5-methoxy-thiazolo[5,4-b]pyridin-2-yl)-propionamide], for which the melting point lay in the range of 106 to 110 °C.

As to `COc1ccc2nc(NC(=O)C(CC3CCCC3)c3ccc(S(=O)(=O)N4CCN(C(C)=O)CC4)cc3)sc2n1` (stereo not shown) [Example 27, 2-[4-(4-Acetyl-piperazine-1-sulfonyl)-phenyl]-3-cyclopentyl-N-(5-methoxy-thiazolo[5,4-b]pyridin-2-yl)-propionamide], the melting point lay within 215 to 217 °C.

As a reminder, the EC50 is the concentration at which the effect is half-maximal. Broadly, the melting point is the temperature of the solid-liquid transition.
